Experimental data as given in patent publication US12590062B2, “PD-1/PD-L1 inhibitors” (Gilead Sciences, Inc., priority 2017, dated 2026).

Legend:
[1] = molecular target: PD-1/PD-L1 (Homo sapiens, UniProt Q9NZQ7); assay: PD-1/PD-L1 biochemical protein-protein interaction assay (ALPHA); type: binding; settings: 0.3 nM His tagged PD-L1, 2.5 nM biotinylated Fc-PD-1, 60 minutes at 25° C., read-out: IC50 PD-L1-PD-1 Alpha IC50-mono PD-L1-fcP-D1
Method in brief: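 Final concentrations 0.3 nM His-tagged PD-L1 and 2.5 nM biotinylated Fc-PD-1 (extracellular domains) were reacted with compound for 60 min at 25° C in pH 7.4 Hepes/NaCl/EDTA/Tween/BSA buffer. Binding was then detected by ALPHA beads, and IC50 values were taken from four-parameter curve fitting.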

[2] = molecular target: T1, PD-1/PD-L1 interaction (Homo sapiens, UniProt Q9NZQ7); assay: PD-1/PD-L1 NFAT reporter co-culture assay; type: cell-based; settings: Jurkat PD-1 NFAT-luciferase cells co-cultured with aAPC-PD-L1 CHO cells, 6 hrs at 37° C.; read-out: EC50 NFAT Luciferase
T1 construct: expressed in transfected cells; host or cells: CHO cells (aAPC-PD-L1) co-cultured with Jurkat cells overexpressing PD-1 and an NFAT-luciferase reporter
T1 sequence (Q9NZQ7 19-290): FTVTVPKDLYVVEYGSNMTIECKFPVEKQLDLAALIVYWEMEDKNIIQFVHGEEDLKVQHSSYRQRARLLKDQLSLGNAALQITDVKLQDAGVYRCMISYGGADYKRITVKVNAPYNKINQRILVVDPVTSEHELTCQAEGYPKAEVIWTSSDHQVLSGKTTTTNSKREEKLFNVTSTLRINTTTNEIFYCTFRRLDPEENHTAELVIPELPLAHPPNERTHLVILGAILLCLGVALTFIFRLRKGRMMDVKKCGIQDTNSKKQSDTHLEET
Method in brief: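 Restoration of TCR-driven NFAT luciferase signal: 6 h, 37 °C co-culture of PD-1 Jurkat reporter cells (pre-mixed with compound) on overnight-seeded PD-L1/anti-CD3 CHO monolayer. ONE-Glo luminescence; dose-response fitted to four-parameter equation for EC50.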

[3] = molecular target: T2, PD-L1 (Homo sapiens, UniProt Q9NZQ7); assay: PD-L1/PD-L1 dimerization biochemical protein-protein interaction assay (ALPHA); type: binding; settings: compound-induced PD-L1 dimerization, head prints '1 nM' (0.5 nM His-tagged PD-L1 and 0.5 nM FLAG-tagged PD-L1), read-out: AC50 PDL1 Dimer Alpha 1 nM
T2 construct: determine if they can specifically dimerize the extracellular domains of PD-L1
T2 sequence (Q9NZQ7 19-238 limits assumed): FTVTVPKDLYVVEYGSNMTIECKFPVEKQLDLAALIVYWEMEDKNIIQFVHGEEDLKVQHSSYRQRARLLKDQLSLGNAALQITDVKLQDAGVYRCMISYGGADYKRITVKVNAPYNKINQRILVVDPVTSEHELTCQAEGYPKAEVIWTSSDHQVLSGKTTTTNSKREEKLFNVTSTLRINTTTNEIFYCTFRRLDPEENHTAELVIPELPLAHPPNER
T2 sequence (Q9NZQ7 19-238 limits assumed): as above
Method in brief: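 ALPHA proximity assay of compound-induced dimerization of 0.5 nM His-tagged and 0.5 nM FLAG-tagged PD-L1 extracellular domains in Hepes pH 7.4 buffer, 2 h at 25 °C. Anti-His acceptor then anti-FLAG donor beads, 60 min each; AC50 from four-parameter fit.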

Sequence of PD-1/PD-L1 (Q9NZQ7 19-238 limits assumed): as above

IC50 [1] [nM]	EC50 [2] [nM]	AC50 [3] [nM]	Structure (SMILES)
0.064	39	67.7	COc1nc(O[C@H]2CCc3c(-c4cccc(-c5cnc6c(CN7CC8(CNC(=O)C8)C7)cn(C)c6n5)c4Cl)cccc32)c(Cl)cc1CN1CCC[C@@H](C(=O)O)C1 [Example 524]
0.064	27	34.8	COc1nc(O[C@H]2CCc3c(-c4cccc(-c5cnc6c(CN7CC8(CNC(=O)C8)C7)cn(C)c6n5)c4Cl)cccc32)c(Cl)cc1CN1CC[C@@H](C(=O)O)C1 [Example 525]
0.064	110	73.6	COc1nc(O[C@H]2CCc3c(-c4cccc(-c5cnc6c(CNC[C@@H]7CCC(=O)N7)cn(C)c6n5)c4Cl)cccc32)c(Cl)cc1CN1CCC[C@@H](C(=O)O)C1 [Example 526]
0.064	46	69.9	COc1nc(O[C@H]2CCc3c(-c4cccc(-c5cnc6c(CN7CC8(CNC(=O)C8)C7)cn(C)c6n5)c4Cl)cccc32)c(Cl)cc1CN1CC(C(=O)O)C1 [Example 527]
0.068	89	63.3	COc1nc(O[C@H]2CCc3c(-c4cccc(-c5cnc6c(CNC[C@@H]7CCC(=O)N7)cn(C)c6n5)c4Cl)cccc32)c(Cl)cc1CN1CC[C@@H](C(=O)O)C1 [Example 528]
0.064	165	56.2	COc1nc(O[C@H]2CCc3c(-c4cccc(-c5cnc6c(CNC[C@@H]7CCC(=O)N7)cn(C)c6n5)c4Cl)cccc32)c(Cl)cc1CN1CC(C(=O)O)C1 [Example 529]
0.593	103	126	N#Cc1cncc(COc2nc(OCc3cccc(-c4cccc(-c5ccc(CNC[C@@H]6CCC(=O)N6)cc5)c4Cl)c3Cl)c(Br)cc2CNC[C@@H]2CCC(=O)N2)c1 [Example 540]
0.641	93	70.4	COc1cc(-c2cccc(-c3cccc(COc4nc(OCc5cncc(C#N)c5)c(CNC[C@@H]5CCC(=O)N5)cc4Br)c3Cl)c2Cl)ccc1CNC[C@@H]1CCC(=O)N1 [Example 541]
1.24	197	136	COc1cc(-c2cccc(-c3cccc(COc4nc(OC)c(CNC[C@@H]5CCC(=O)N5)cc4Br)c3Cl)c2Cl)ccc1CNC[C@@H]1CCC(=O)N1 [Example 542]
0.07	187	49.7	COc1nc(-c2cccc(-c3cccc(COc4nc(OCc5cncc(C#N)c5)c(CN5CCCC[C@H]5C(=O)O)cc4Br)c3Cl)c2Cl)ccc1C1=NCCN1 [Example 543]
0.09	109	17.3	CS(=O)(=O)c1cncc(COc2nc(OCc3cccc(-c4cccc(-c5ccc6c(c5)C[C@@H](N)C6)c4Cl)c3Cl)c(Br)cc2CN2CCCC[C@H]2C(=O)O)c1 [Example 544]
0.089	145	24.4	CC(C)(NCc1cc(Br)c(OCc2cccc(-c3cccc(-c4ccc5c(c4)C[C@@H](N)C5)c3Cl)c2Cl)nc1OCc1cncc(S(C)(=O)=O)c1)C(=O)O [Example 545]
0.515	109	39.2	CS(=O)(=O)c1cncc(COc2nc(OCc3cccc(-c4cccc(-c5ccc6c(c5)C[C@@H](N)C6)c4Cl)c3Cl)c(Br)cc2CNC[C@@H](O)CC(=O)O)c1 [Example 546]
0.363	51	20.1	C[C@](CO)(NCc1cc(Br)c(OCc2cccc(-c3cccc(-c4ccc5c(c4)C[C@@H](N)C5)c3Cl)c2Cl)nc1OCc1cncc(S(C)(=O)=O)c1)C(=O)O [Example 547]
0.676	197	74.6	COc1nc(OCc2cccc(-c3cccc(-c4ccc5c(c4)C[C@@H](N)C5)c3Cl)c2Cl)c(Br)cc1CNC[C@H](O)CC(=O)O [Example 548]
0.355	177	54.6	COc1nc(OCc2cccc(-c3cccc(-c4ccc5c(c4)C[C@@H](N)C5)c3Cl)c2Cl)c(Br)cc1CN[C@](C)(CO)C(=O)O [Example 549]
0.134	163	47.7	C[C@@](CO)(NCc1cc(Br)c(OCc2cccc(-c3cccc(-c4ccc5c(c4)C[C@@H](N)C5)c3Cl)c2Cl)nc1OCc1cncc(S(C)(=O)=O)c1)C(=O)O [Example 550]
0.064	100	12.4	CC(C)(NCc1cc(Br)c(OCc2cccc(-c3cccc(-c4ccc5c(c4)C[C@@H](N)C5)c3Cl)c2Cl)nc1OCc1cncc(C#N)c1)C(=O)O [Example 551]

IC50 [1] [nM]	EC50 [2] [nM]	AC50 [3] [nM]	Structure (SMILES)
0.716	152	74.7	N#Cc1cncc(COc2nc(OCc3cccc(-c4cccc(-c5ccc6c(c5)C[C@@H](N)C6)c4Cl)c3Cl)c(Br)cc2CNC[C@@H](O)CC(=O)O)c1 [Example 552]
0.101	70	17.7	C[C@](CO)(NCc1cc(Br)c(OCc2cccc(-c3cccc(-c4ccc5c(c4)C[C@@H](N)C5)c3Cl)c2Cl)nc1OCc1cncc(C#N)c1)C(=O)O [Example 553]
0.15	148	39.5	C[C@@](CO)(NCc1cc(Br)c(OCc2cccc(-c3cccc(-c4ccc5c(c4)C[C@@H](N)C5)c3Cl)c2Cl)nc1OCc1cncc(C#N)c1)C(=O)O [Example 554]
0.396	84	23.1	COc1nc(-c2cccc(-c3cccc(COc4nc(OCc5cncc(C#N)c5)c(CNCCO)cc4Br)c3Cl)c2Cl)ccc1C1=NCCN1 [Example 555]
0.194	86	37.7	COc1nc(-c2cccc(-c3cccc(COc4nc(OCc5cncc(C#N)c5)c(CNC[C@@H]5CCC(=O)N5)cc4Br)c3Cl)c2Cl)ccc1C1=NCCN1 [Example 556]
0.201	135	137	Cc1c(COc2cc(OCc3cncc(C#N)c3)c(CN[C@@](C)(CO)C(=O)O)cc2Cl)cccc1-c1cccc(Nc2nccc3cc(CNCCO)cnc23)c1C [Example 557]
0.065	51	33.6	COc1nc(-c2cccc(-c3cccc(COc4nc(OCc5cncc(C#N)c5)c(CNC[C@@H](O)CC(=O)O)cc4Br)c3Cl)c2Cl)ccc1C1=NCCN1 [Example 558]
0.064	53	18.7	COc1nc(-c2cccc(-c3cccc(COc4nc(OCc5cncc(C#N)c5)c(CN[C@@](C)(CO)C(=O)O)cc4Br)c3Cl)c2Cl)ccc1C1=NCCN1 [Example 559]
0.135	163	77.8	N#Cc1cncc(COc2nc(OCc3cccc(-c4cccc(-c5ccc(OCCNCCO)cc5)c4Cl)c3Cl)c(Cl)cc2CN2C[C@@H](O)C[C@H]2C(=O)O)c1 [Example 560]
0.531	146	193	N#Cc1cncc(COc2nc(OCc3cccc(-c4cccc(-c5ccc(OCCNCCO)cc5)c4Cl)c3Cl)c(Cl)cc2CNC[C@@H](O)CC(=O)O)c1 [Example 561]
0.102	162	126	COc1nc(OCc2cccc(-c3cccc(COc4nc(OC)c(CNC[C@@H](O)CC(=O)O)cc4Br)c3C#N)c2Cl)c(Br)cc1CNC[C@@H](O)CC(=O)O [Example 562]
0.259	112	73.4	N#Cc1cc(C#N)cc(COc2nc(OCc3cccc(-c4cccc(-c5ccc(OCCN6CC7(CCC(=O)N7)C6)cc5)c4Cl)c3Cl)c(Cl)cc2CNC[C@@H](O)CC(=O)O)c1 [Example 565]
0.11	86	39.4	C[C@@](CO)(NCc1cc(Cl)c(OCc2cccc(-c3cccc(-c4ccc(OCCN5CC6(CCC(=O)N6)C5)cc4)c3Cl)c2Cl)nc1OCc1cc(C#N)cc(C#N)c1)C(=O)O [Example 566]
0.327	85	68.7	N#Cc1cc(C#N)cc(COc2nc(OCc3cccc(-c4cccc(-c5ccc(CN6CC7(CCC(=O)N7)C6)cc5)c4Cl)c3Cl)c(Cl)cc2CNC[C@@H](O)CC(=O)O)c1 [Example 567]
0.064	65	44.3	COc1nc(-c2cccc(-c3cccc(COc4nc(OCc5cc(C#N)cc(C#N)c5)c(CNC[C@@H](O)CC(=O)O)cc4Cl)c3Cl)c2Cl)ccc1CNC[C@@H]1CCC(=O)N1 [Example 568]
0.085	74	128	Cc1c(COc2cc(OCc3cncc(C#N)c3)c(CNC[C@@H](O)CC(=O)O)cc2Cl)cccc1-c1cccc(-c2ccc3c(CNC[C@@H](O)CC(=O)O)ccnc3c2)c1C [Example 569]
0.092	115	56.5	Cc1c(COc2cc(OCc3cncc(C#N)c3)c(CN[C@@](C)(CO)C(=O)O)cc2Cl)cccc1-c1cccc(-c2ccc(CNCCCS(N)(=O)=O)cc2)c1C [Example 570]
0.091	126	156	Cc1c(COc2cc(OCc3cncc(C#N)c3)c(CN[C@@](C)(CO)C(=O)O)cc2Cl)cccc1-c1cccc(-c2ccc(CNCCS(C)(=O)=O)cc2)c1C [Example 571]
